Source: patent US9101620B2, “Polymorph of 3-(substituteddihydroisoindolinone-2-yl)-2,6-dioxopiperidine, and pharmaceutical compositions thereof” (Nanjing Cavendish Bio-Engineering Technology Co., Ltd., priority 2009, dated 2015)
Entries after “also recorded” stand apart in the source; their conditions may differ.

Key:
Format in all cases: physicochemical
[1] = Photostability test (strong illumination); details: for Appearance / Content / Related substance: 4500±500 Lx
From the text: (§1) The conditions and methods of related substance test involved in this invention were in accordance with HPLC (Appendix VD of Chinese Pharmacopoeia Edition 2005).
(§2) Chromatographic conditions and system applicability: octadecylsilane bonded silica as the filler; 0.01 mol/L of potassium dihydrogen phosphate (adjusted to pH 3.5 by phosphoric acid)-methanol-acetonitrile (80:15:5) as the mobile phase; detection wavelength was 240 nm; the number of theoretical plates should be not less than 2000, calculated according to the peak of 3-(4-amino-1-oxo-1,3-dihydro-2H-isoindole-2-yl)-piperidine-2,6-dione. The resolution of the peak of 3-(4-amino-1-oxo-1,3-dihydro-2H-isoindole-2-yl)-piperidine-2,6-dione from the peaks of adjacent impurities should meet requirements.
The Polymorph I of 3-(4-amino-1-oxo-1,3-dihydro-2H-isoindole-2-yl)-piperidine-2,6-dione (hemihydrate) was distributed homogeneously in open petri dish with the thickness of the raw material not more than 5 mm, and the distance was adjusted to make illumination intensity at 4500±500 Lx. Sample was tested at the 5th and 10th day respectively and the results were contrasted with that of the Day 0. Results were listed in Tab. 2. After strong illumination for 10 days, the X-ray powder diffraction pattern was shown in FIG. 5; DSC diagram of the Polymorph I of 3-(4-amino-1-oxo-1,3-dihydro-2H-isoindole-2-yl)-piperidine-2,6-dione (hemihydrate) was in FIG. 6.
(§3) The Polymorph II of 3-(4-amino-1-oxo-1,3-dihydro-2H-isoindole-2-yl)-piperidine-2,6-dione was distributed homogeneously in open petri dish with the thickness of the raw material not more than 5 mm and the distance was adjusted to make illumination intensity at 4500±500 Lx. Sample was tested at the 5th and 10th day respectively and the results were contrasted with that of the Day 0. Results were listed in Tab. 7. After strong illumination for 10 days, the X-ray powder diffraction pattern was shown in FIG. 16; DSC diagram was in FIG. 17
as §3, with “III” for “II”, “12.” for “7.”, “27;” for “16;”, “28” for “17”

[2] = Solubility test according to Chinese Pharmacopoeia Edition 2005; details: for Dissolving status: within 30 minutes
Description: Test was performed according to the Examples of Chinese Pharmacopoeia Edition 2005. Method: a definite quantity of the Polymorph I of 3-(4-amino-1-oxo-1,3-dihydro-2H-isoindole-2-yl)-piperidine-2,6-dione (hemihydrate) measured accurately was added into a certain quantity of solvent slowly, while the mixture was shaken strongly for 30 seconds every 5 minutes and the dissolving status within 30 minutes was observed. Results were listed in Tab. 1.
(§4) Test was performed according to the Examples of Chinese Pharmacopoeia Edition 2005. Method: a definite quantity of the (acetonitrile) solvated Polymorph II of 3-(4-amino-1-oxo-1,3-dihydro-2H-isoindole-2-yl)-piperidine-2,6-dione measured accurately was added into a certain quantity of solvent slowly, while the mixture was shaken strongly for 30 seconds every 5 minutes and the dissolving status within 30 minutes was observed. Results were listed in Tab. 61.
as §4, with “(acetone)” for “(acetonitrile)”, “polymorph III” for “Polymorph II”, “slowly” for “slowly,”, “11.” for “61.”

[3] = Observation test of long-term sample storage (crystal transformation); details: long-term sample storage in high humidity; DSC scanning
[4] = High temperature test (60° C.); details: for Appearance / Content / Related substance: 60° C.
From the text: as §1, §2
The raw material of Polymorph I of 3-(4-amino-1-oxo-1,3-dihydro-2H-isoindole-2-yl)-piperidine-2,6-dione (hemihydrate) was put into a clean sealed glass bottle and then put in thermostatic drying chamber at 60° C. Sample was tested at the 5th and 10th day respectively and the results were contrasted with that of the Day 0. Results were listed in Tab. 3. After high temperature test of 60° C. for 10 days, the X-ray powder diffraction pattern was shown FIG. 7; DSC diagram was in FIG. 8.
(§5) The raw material of Polymorph II of 3-(4-amino-1-oxo-1,3-dihydro-2H-isoindole-2-yl)-piperidine-2,6-dione was put into a clean sealed glass bottle and then put in thermostatic drying chamber at 60° C. Sample was tested at the 5th and 10th day respectively and the results were contrasted with that of the Day 0. Results were listed in Tab. 8. After high temperature test of 60° C. for 10 days, the X-ray powder diffraction pattern was shown in FIG. 18; DSC diagram was in FIG. 19.
as §5, with “III” for “II”, “13.” for “8.”, “29;” for “18;”, “30.” for “19.”

Appearance ([1]; 0 days): off-white powder | Content ([1]; 0 days): 99.86% | Related substance ([1]; 0 days): 0.07% | Appearance ([1]; 5 days): off-white powder | Content ([1]; 5 days): 99.85% | Related substance ([1]; 5 days): 0.07% | Appearance ([1]; 10 days): off-white powder | Content ([1]; 10 days): 99.85% | Related substance ([1]; 10 days): 0.07% | Variation of appearance and content (in words) ([1]; photostability (illumination) test, summary): few significant variation | Conclusion (solubility) ([2]; 0.1 mol/L HCl solution): slightly soluble | Dissolving status ([2]; 0.1 mol/L HCl solution): fully | Conclusion (solubility) ([2]; 0.1 mol/L NaOH solution): sparingly soluble | Dissolving status ([2]; 0.1 mol/L NaOH solution): fully | Conclusion (solubility) ([2]; DMF (N,N-dimethylformamide)): soluble | Dissolving status ([2]; DMF): fully | Conclusion (solubility) ([2]; DMSO (dimethylsulfoxide)): soluble | Dissolving status ([2]; DMSO): fully | Conclusion (solubility) ([2]; acetic acid): sparingly soluble | Dissolving status ([2]; acetic acid): fully | Conclusion (solubility) ([2]; acetone): slightly soluble | Dissolving status ([2]; acetone): fully | Conclusion (solubility) ([2]; acetonitrile): slightly soluble | Dissolving status ([2]; acetonitrile): fully | Conclusion (solubility) ([2]; ethanol): very slightly soluble and very | Dissolving status ([2]; ethanol): fully | Conclusion (solubility) ([2]; ethyl acetate): very slightly soluble and very | Dissolving status ([2]; ethyl acetate): fully | Conclusion (solubility) ([2]; methanol): slightly soluble | Dissolving status ([2]; methanol): fully | Dissolving status ([2]; water): cannot fully | Appearance ([4]; 0 days): off-white powder | Content ([4]; 0 days): 99.86% | Related substance ([4]; 0 days): 0.07% | Appearance ([4]; 5 days): off-white powder | Content ([4]; 5 days): 99.84% | Related substance ([4]; 5 days): 0.07% | Appearance ([4]; 10 days): off-white powder | Content ([4]; 10 days): 99.83% | Related substance ([4]; 10 days): 0.08% | Variation of appearance and content (in words) ([4]; high temperature (60° C.) test, summary): few significant variation
Compound: Nc1cccc2c1CN(C1CCC(=O)NC1=O)C2=O (single isomer, unassigned) [Polymorph III, 3-(4-amino-1-oxo-1,3-dihydro-2H-isoindole-2-yl)-piperidine-2,6-dione]
Conclusion (solubility) ([2]; water): very slightly soluble; also recorded: practically | Crystal transformation [3]: a small amount of Polymorph III had transformed to Polymorph I
